Values after ≈ are worked out from the molar mass of the structure shown. Read-outs that look alike come from different tables or passages of the source.
Legend:
[1] = Kinetic solubility in PBS; type: physicochemical; settings: phosphate-buffered saline, pH 7.4, aqueous buffer, kinetic from dmso stock
Procedure, shortened: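 DMSO stocks diluted into PBS pH 7.4 to 100 μM and shaken 2 h at room temperature in duplicate, then filtered by centrifugation. Filtrates diluted 1:99 in 50% acetonitrile. Quantified by Echo-MS against calibration standards spanning 0.05–4 μM.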

[2] = system: MDA-MB-231 breast cancer cell line; assay: CellTox Green cytotoxicity assay; type: cell-based, human; settings: 24 h
Experimental: MDA-MB-231 cells were harvested and counted using an automated cell counter. A total of 2,500 cells per well were seeded in 20 μL of phenol red-free complete RPMI medium into black 384-well plates. Five μL of CD73 inhibitors (final concentration: […]) or 5 μL PBS (negative control) were added to each well, except for wells designed as maximal signal (dead cell) controls. Plates were incubated for 24 h at 37 °C in a humidified CO2 incubator. To generate the maximum signal control, 5 μL of lysis buffer (CellTox Green Cytotoxicity Assay, Promega) was added to the dead cell controls, followed by a 30 min incubation at room temperature. Subsequently, 25 μL/well of CellTox Green Dye (diluted 1:500 in the assay buffer; Promega) was added. Plates were incubated in the dark on an orbital shaker at 500–700 rpm for 15 min. Fluorescence was measured using an Infinite M1000 plate reader (Tecan) with excitation at 485–500 nm and emission at 520–530 nm. Data were analyzed in GraphPad Prism 10.
Figure S2: Effect of CD73 inhibition on the viability of CD73-expressing breast cancer cell line. MDA-MB-231 cells were incubated with 10 µM CD73 inhibitors for 24 hours. Viability was assessed using the CellTox™ Green Cytotoxicity Assay.
± s.d. of technical triplicates (s.d., standard deviation).
(1 picture or pasted object on this page, not shown here)

[3] = Microsomal stability assay, mouse liver microsomes; type: in vitro ADME; settings: for microsomal CLint at 10 µM: pooled liver microsomes, pH 7.4, read-out: Mics (m) CLint; for Mics (m) comp remaining 60 min: 10 μM
in vitro = settings: human, plasma
hERG potassium channel = hERG potassium channel (Homo sapiens, UniProt Q12809); assay: hERG inhibition assay (thallium flux, HEK293-hERG cells); type: cell-based; settings: for inhibition of hERG: at 100 μM
Experimental: The study was performed by Bienta (Enamine Biology Services). HEK293-hERG cells (stably expressing human potassium channel hERG – human Ether-a-go-go Related Gene) were cultured in DMEM/F-12 medium supplemented with 10% FBS, 100 U/mL penicillin, 100 μg/mL streptomycin, and 500 μg/mL G418. The assay was performed according to the manufacturer’s instructions. Cells were seeded into a 384-well poly-D-lysine, clear-bottom microtiter plate (8000 cells/well) in DMEM/F-12 medium supplemented with 5% FBS, 100 U/mL penicillin, 100 μg/mL streptomycin 24 h prior to assay. After 24 h of cell growth, the conditioned medium was substituted with the Dye Loading Solution comprising thallium-sensitive dye, followed by incubation for 1 h in a CO2 incubator. After the incubation, the Dye Loading Solution was substituted with a 15 μL/well mixture of the Assay Buffer and the TRS. Then, 5 μL of the test compound diluted in the assay buffer (0.5% DMSO final concentration) was added to each well of the plate and incubated at room temperature for 30 min hERG inhibition by test compounds was assessed at 3 concentrations of 10–50–100 μM. All test points were performed in quadruplicates. […] DMSO was used as a negative control, and Haloperidol was used as a reference compound to verify the assay validity. Haloperidol was dissolved in 100% DMSO at a concentration of 20 mM and stored at – 20 °C (for no more than a month). Haloperidol was assessed at the final concentrations ranging from 0.023 μM to 50.0 μM (8 points, 3-fold serial dilutions). The test compounds were dissolved in 100% DMSO at a concentration of 20 mM.

[4] = biological target: T1, recombinant human CD73 (hCD73) (Homo sapiens, UniProt P21589); assay: CD73 activity assay on recombinant human CD73; type: biochemical; settings: ΔGexp = RT ln Ki
T1 sequence (P21589 27-574): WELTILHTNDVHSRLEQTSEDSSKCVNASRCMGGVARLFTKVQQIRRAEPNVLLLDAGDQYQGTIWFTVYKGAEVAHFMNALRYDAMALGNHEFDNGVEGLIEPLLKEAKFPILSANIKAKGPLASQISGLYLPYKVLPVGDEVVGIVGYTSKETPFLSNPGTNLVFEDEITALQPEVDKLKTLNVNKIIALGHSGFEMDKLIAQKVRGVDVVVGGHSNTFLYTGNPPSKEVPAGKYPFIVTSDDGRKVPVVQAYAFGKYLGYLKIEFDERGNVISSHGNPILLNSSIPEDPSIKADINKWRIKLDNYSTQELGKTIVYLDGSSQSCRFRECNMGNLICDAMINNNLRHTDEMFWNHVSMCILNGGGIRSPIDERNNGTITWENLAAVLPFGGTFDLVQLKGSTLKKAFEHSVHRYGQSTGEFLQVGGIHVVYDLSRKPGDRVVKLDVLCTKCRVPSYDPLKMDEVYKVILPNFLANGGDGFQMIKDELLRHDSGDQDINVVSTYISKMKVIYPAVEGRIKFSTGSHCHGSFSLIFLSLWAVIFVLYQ

[5] = In vivo pharmacokinetic study, intravenous; parameters: species or system male CD-1 mice; settings: for half-life / clearance: plasma, 1 mg/kg; for half-life: footnote: t1/2 stability in plasma, text: half-life in mouse PK; for unbound plasma exposure relative to mouse CD73 Ki: mouse PK, unbound via mouse PPB, all time points
Procedure, shortened: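 Single intravenous dose in male CD-1 mice (n=3, 9 weeks, 29.2–33.7 g). Plasma levels measured by LC-MS/MS at 5, 15, 30, 60, 120, 240 and 480 min.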

[6] = male, CD-1, mouse, iv, intravenous
[7] = mouse, male CD-1 mice, intravenous, single dose, read-out: Cl (obs), observed clearance
[8] = male, CD-1, mouse, intravenous, in vivo PK in mice, unit inferred, read-out: clearance

Sequence of hERG potassium channel (Q12809 whole entry): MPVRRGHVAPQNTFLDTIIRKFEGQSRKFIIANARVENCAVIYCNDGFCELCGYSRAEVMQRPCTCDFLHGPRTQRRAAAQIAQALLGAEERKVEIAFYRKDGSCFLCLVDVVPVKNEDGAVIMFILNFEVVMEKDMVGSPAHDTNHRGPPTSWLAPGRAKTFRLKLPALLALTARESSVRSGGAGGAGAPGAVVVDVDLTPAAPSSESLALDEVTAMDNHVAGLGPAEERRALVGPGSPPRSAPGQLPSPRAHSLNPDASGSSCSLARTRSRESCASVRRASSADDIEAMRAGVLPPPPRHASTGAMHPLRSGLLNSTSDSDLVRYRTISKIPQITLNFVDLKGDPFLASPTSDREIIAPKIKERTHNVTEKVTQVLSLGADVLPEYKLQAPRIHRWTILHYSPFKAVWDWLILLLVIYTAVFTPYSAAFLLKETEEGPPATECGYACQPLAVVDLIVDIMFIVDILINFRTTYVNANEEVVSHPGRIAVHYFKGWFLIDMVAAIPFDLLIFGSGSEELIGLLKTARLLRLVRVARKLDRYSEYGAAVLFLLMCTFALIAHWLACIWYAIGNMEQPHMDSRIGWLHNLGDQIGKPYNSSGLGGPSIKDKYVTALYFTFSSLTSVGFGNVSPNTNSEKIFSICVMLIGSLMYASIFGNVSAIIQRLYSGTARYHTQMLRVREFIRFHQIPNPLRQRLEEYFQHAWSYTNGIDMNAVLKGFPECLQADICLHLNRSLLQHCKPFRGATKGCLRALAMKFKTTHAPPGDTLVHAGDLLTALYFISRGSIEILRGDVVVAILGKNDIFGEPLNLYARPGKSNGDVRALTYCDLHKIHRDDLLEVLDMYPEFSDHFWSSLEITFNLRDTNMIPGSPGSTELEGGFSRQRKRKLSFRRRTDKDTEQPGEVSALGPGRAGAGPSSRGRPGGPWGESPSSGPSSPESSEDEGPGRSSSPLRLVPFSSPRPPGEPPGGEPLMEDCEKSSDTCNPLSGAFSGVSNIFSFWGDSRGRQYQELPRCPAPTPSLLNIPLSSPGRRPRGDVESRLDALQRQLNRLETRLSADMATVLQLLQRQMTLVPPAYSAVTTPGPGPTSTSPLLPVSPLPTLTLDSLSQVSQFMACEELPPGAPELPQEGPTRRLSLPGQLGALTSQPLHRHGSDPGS

| Compound | solubility at 2 h [1] [µM] | in vitro cytotoxicity against MDA-MB-231 [2] | microsomal CLint at 10 µM [3] [µL/min/mg] | half-life at 10 µM (in vitro) [h] | hERG % inhibition at 100 µM (hERG potassium channel) [%] | inhibition of hERG (hERG potassium channel) | dG_exp, experimental binding free energy [4] | Mics (m) comp remaining 60 min [3] [%] | half-life [5, 6] [h] | unbound plasma exposure relative to mouse CD73 Ki [5] | clearance [5, 7] [mL/min/kg] | clearance [5, 8] [mL/min/kg] | clearance ([5]; male, CD-1, mouse, iv, in vivo PK in mice, unit inferred, read-out: clearance) [mL/min/kg] |
| --- | --- | --- | --- | --- | --- | --- | --- | --- | --- | --- | --- | --- | --- |
| O=P(O)(O)CP(=O)(O)OC[C@H]1O[C@@H](n2ccc3c(-c4cccc5ccncc45)ncnc32)[C@H](O)[C@@H]1O [4A.18] | 56 (≈ 30 µg/mL) | nontoxic | < 1 | > 2 | 6 | no inhibition | –14.1 kcal/mol | – | – | – | – | – | – |
| O=P(O)(O)CP(=O)(O)OC[C@H]1O[C@@H](n2ccc3c(-c4ccc(F)c5ccccc45)nc(Cl)nc32)[C@H](O)[C@@H]1O [7B.28] | > 100 | nontoxic | < 2 | > 2 | 6 | no inhibition | –16.6 kcal/mol | 101 | 1.8 | well above | 1.7 | – | – |
| O=P(O)(O)CP(=O)(O)OC[C@H]1O[C@@H](n2ccc3c(-c4cccc5c4CCCC5)nc(Cl)nc32)[C@H](O)[C@@H]1O [7B.12] | 85 (≈ 48.8 µg/mL) | nontoxic | < 1 | > 2 | 3 | no inhibition | –15.9 kcal/mol | 117 | 2.33 | – | 0.88 | – | – |
| Cc1nc(-c2ccc3ccccc3c2)c2ccn([C@@H]3O[C@H](COP(=O)(O)CP(=O)(O)O)[C@@H](O)[C@H]3O)c2n1 [18E.7] | 78 (≈ 42.9 µg/mL) | nontoxic | 1 | > 2 | – | – | –14.6 kcal/mol | 97 | 1.73 | – | 4.6 | – | – |
| Cc1nc(-c2cccc3ccccc23)c2ccn([C@@H]3O[C@H](COP(=O)(O)CP(=O)(O)O)[C@@H](O)[C@H]3O)c2n1 [18E.6] | 89 (≈ 48.9 µg/mL) | nontoxic | 1 | > 2 | 2 | no inhibition | –13.9 kcal/mol | 95 | 5.27 | well above | 0.32 | 0.32 | – |
| O=P(O)(O)CP(=O)(O)OC[C@H]1O[C@@H](n2ccc3c(-c4ccc5c(c4)CCCC5)nc(Cl)nc32)[C@H](O)[C@@H]1O [7B.23] | 84 (≈ 48.2 µg/mL) | nontoxic | < 1 | > 2 | 5 | no inhibition | –16.3 kcal/mol | 123 | 2.23 | – | 3 | – | – |
| O=P(O)(O)CP(=O)(O)OC[C@H]1O[C@@H](n2ccc3c(-c4ccc5c(c4)CCCC5)nc(I)nc32)[C@H](O)[C@@H]1O [27H.23, [(5-{[2-Iodo-4-(5,6,7,8-tetrahydronaphthalen-2-yl)-7H-pyrrolo[2,3-d]pyrimidin-7-yl]-β-D-ribofuranosyl}oxy)phosphonomethyl]phosphonic Acid] | > 100 | nontoxic | 2 | > 2 | 7 | no inhibition | –16.1 kcal/mol | – | 3.08 | – | 3.1 | 3.1 | – |
| O=P(O)(O)CP(=O)(O)OC[C@H]1O[C@@H](n2ccc3c(-c4ccc5ccccc5c4)ncnc32)[C@H](O)[C@@H]1O [4A.7] | > 100 | nontoxic | – | > 2 | 1 | no inhibition | –13.4 kcal/mol | – | 4.2 | – | – | – | 4.1 |
